Patent US10226045B2, “Azoline compounds” (priority 2014, dated 2019)
Where two headings read alike, the source gives them in different places.

How the values were obtained:
Type in all cases: in vivo
[1] = tested on: Vetch Aphid (Megoura viciae); assay: Vetch aphid, broad bean leaf disk test; conditions: foliar, 120 h
Protocol: B.3 Vetch Aphid (Megoura viciae)
For evaluating control of vetch aphid (Megoura viciae) through contact or systemic means the test unit consisted of 24-well-microtiter plates containing broad bean leaf disks.
The compounds were formulated using a solution containing 75% v/v water and 25% v/v DMSO. Different concentrations of formulated compounds were sprayed onto the leaf disks at 2.5 μl, using a custom built micro atomizer, at two replications.
After application, the leaf disks were air-dried and 5-8 adult aphids placed on the leaf disks inside the microtiter plate wells. The aphids were then allowed to suck on the treated leaf disks and incubated at about 23±1° C. and about 50±5% relative humidity for 5 days. Aphid mortality and fecundity was then visually assessed.

[2] = tested on: Diamond Back Moth (Plutella xylostella); assay: Diamond back moth, cabbage leaf dip test; conditions: foliar
Protocol: B.1 Diamond Back Moth (Plutella xylostella)
The active compound was dissolved at the desired concentration in a mixture of 1:1 (vol:vol) distilled water:aceteone. Surfactant (Kinetic HV) was added at a rate of 0.01% (vol/vol). The test solution was prepared at the day of use.
Leaves of cabbage were dipped in test solution and air-dried. Treated leaves were placed in petri dishes lined with moist filter paper and inoculated with ten 3rd instar larvae. Mortality was recorded 72 hours after treatment.

[3] = tested on: Tobacco Budworm (Heliothis virescens); assay: Tobacco budworm, insect diet microtiter plate test; conditions: 120 h
Protocol: B.4 Tobacco Budworm (Heliothis virescens)
For evaluating control of tobacco budworm (HeliothiS virescens) the test unit consisted of 96-well-microtiter plates containing an insect diet and 15-25 H. virescens eggs.
The compounds were formulated using a solution containing 75% v/v water and 25% v/v DMSO. Different concentrations of formulated compounds were sprayed onto the insect diet at 10 μl, using a custom built micro atomizer, at two replications.
(§1) After application, microtiter plates were incubated at about 28±1° C. and about 80±5% relative humidity for 5 days. Egg and larval mortality was then visually assessed.

[4] = tested on: Mediterranean Fruitfly (Ceratitis capitata); assay: Mediterranean fruitfly, insect diet microtiter plate test; conditions: 120 h
Protocol: B.6 Mediterranean Fruitfly (Ceratitis capitata)
For evaluating control of Mediterranean fruitfly (CeratitiS capitata) the test unit consisted of microtiter plates containing an insect diet and 50-80 C. capitata eggs. The compounds were formulated using a solution containing 75% v/v water and 25% v/v DMSO. Different concentrations of formulated compounds were sprayed onto the insect diet at 5 μl, using a custom built micro atomizer, at two replications.
as §1

[5] = tested on: Boll Weevil (Anthonomus grandis); assay: Boll weevil, insect diet microtiter plate test; conditions: 120 h
Protocol: B.5 Boll Weevil (Anthonomus grandis)
For evaluating control of boll weevil (Anthonomus grandis) the test unit consisted of 96-well-microtiter plates containing an insect diet and 5-10 A. grandis eggs.
The compounds were formulated using a solution containing 75% v/v water and 25% v/v DMSO. Different concentrations of formulated compounds were sprayed onto the insect diet at 5 μl, using a custom built micro atomizer, at two replications.
After application, microtiter plates were incubated at about 25±1° C. and about 75±5% relative humidity for 5 days. Egg and larval mortality was then visually assessed.

[6] = tested on: Orchid Thrips (dichromothrips corbetti); assay: Orchid thrips, floral-immersion technique
Protocol: B.7 Orchid Thrips (dichromothrips corbetti)
Dichromothrips corbetti adults used for bioassay were obtained from a colony maintained continuously under laboratory conditions. For testing purposes, the test compound is diluted in a 1:1 mixture of acetone:water (vol:vol), plus Kinetic HV at a rate of 0.01% v/v.
Thrips potency of each compound was evaluated by using a floral-immersion technique. All petals of individual, intact orchid flowers were dipped into treatment solution and allowed to dry in Petri dishes. Treated petals were placed into individual re-sealable plastic along with about 20 adult thrips. All test arenas were held under continuous light and a temperature of about 28° C. for duration of the assay. After 3 days, the numbers of live thrips were counted on each petal. The percent mortality was recorded 72 hours after treatment.

[7] = tested on: Neotropical Brown Stink Bug (Euschistus heros); assay: Neotropical brown stink bug, sprayed soybean pods in cups; conditions: 120 h
Protocol: B.12 Neotropical Brown Stink Bug (Euschistus heros)
(§2) The active compound was dissolved at the desired concentration in a mixture of 1:1 (vol:vol) distilled water: acetone. Surfactant (Kinetic HV) was added at a rate of 0.01% (vol/vol). The test solution was prepared at the day of use.
Soybean pods were placed in microwavable plastic cups and inoculated with ten adult stage E. heros. Using a hand atomizer, approximately 1 ml solution is sprayed into each cup, insects and food present. A water source was provided (cotton wick with water). Each treatment was replicated 2-fold. Assay arenas were kept at about 25° C. Percent mortality was recorded after 5 days.

[8] = tested on: Rice Green Leafhopper (Nephotettix virescens); assay: Rice green leafhopper, sprayed rice seedlings; conditions: 72 h
Protocol: B.8 Rice Green Leafhopper (Nephotettix virescens)
Rice seedlings were cleaned and washed 24 hours before spraying. The active compounds were formulated in 1:1 acetone:water (vol:vol), and 0.01% vol/vol surfactant (Kinetic HV) was added. Potted rice seedlings were sprayed with 5-6 ml test solution, air dried, covered with Mylar cages cages and inoculated with 10 adults. Treated rice plants were kept at about 28-29° C. and relative humidity of about 50-60%. Percent mortality was recorded after 72 hours.

[9] = tested on: Red Spider Mite (Tetranychus kanzawai); assay: Red spider mite, sprayed cowpea beans; conditions: 72 h
Protocol: B.9 Red Spider Mite (Tetranychus kanzawai)
The active compound was dissolved at the desired concentration in a mixture of 1:1 (vol:vol) distilled water:acetone. Add surfactant (Kinetic HV) was added at a rate of 0.01% (vol/vol). The test solution was prepared at the day of use.
Potted cowpea beans of 4-5 days of age were cleaned with tap water and sprayed with 1-2 ml of the test solution using air driven hand atomizer. The treated plants were allowed to air dry and afterwards inoculated with 30 or more mites by clipping a cassava leaf section from rearing population. Treated plants were placed inside a holding room at about 25-27° C. and about 50-60% relative humidity. Percent mortality was assessed 72 hours after treatment.

[10] = tested on: Green Soldier Stink Bug (Nezara viridula); assay: Green soldier stink bug, sprayed soybean pods in Petri dishes; conditions: 120 h
Protocol: B.11 Green Soldier Stink Bug (Nezara viridula)
The active compound was dissolved at the desired concentration in a mixture of 1:1 (vol:vol) distilled water:acetone. Surfactant (Kinetic HV) was added at a rate of 0.01% (vol/vol). The test solution was prepared at the day of use.
Soybean pods were placed in glass Petri dishes lined with moist filter paper and inoculated with ten late 3rd instar N. viridula. Using a hand atomizer, approximately 2 ml solution is sprayed into each Petri dish. Assay arenas were kept at about 25° C. Percent mortality was recorded after 5 days.

[11] = tested on: Brown Marmorated Stink Bug (Halyomorpha halys); assay: Brown marmorated stink bug, sprayed peanuts and soybean seeds in cups; conditions: 120 h
Protocol: B.13 Brown Marmorated Stink Bug (Halyomorpha halys)
as §2
Row peanuts and soybean seeds were placed into microwavable plastic cups and inoculated with five adult stage H. halys. Using a hand atomizer, approximately 1 ml solution is sprayed into each cup, insects and food present. A water source was provided (cotton wick with water). Each treatment is replicated 4-fold. Assay arenas are kept at about 25° C. Percent mortality was recorded after 5 days.

[12] = tested on: Green Peach Aphid (Myzus persicae); assay: Green peach aphid, systemic test on artificial diet in microtiter plates; conditions: 72 h
From the text: B.2 Green Peach Aphid (Myzus persicae)
For evaluating control of green peach aphid (Myzus persicae) through systemic means the test unit consisted of 96-well-microtiter plates containing liquid artificial diet under an artificial mem brane.
The compounds were formulated using a solution containing 75% v/v water and 25% v/v DMSO. Different concentrations of formulated compounds were pipetted into the aphid diet, using a custom built pipetter, at two replications.
After application, 5-8 adult aphids were placed on the artificial membrane inside the microtiter plate wells. The aphids were then allowed to suck on the treated aphid diet and incubated at about 23±1° C. and about 50±5% relative humidity for 3 days. Aphid mortality and fecundity was then visually assessed.

[13] = 2500 ppm, eggs on sprayed insect diet, egg and larval mortality after 5 days, in comparison with untreated controls, read-out: mortality
[14] = 2500 ppm, adult aphids on treated artificial diet, 3 days, in comparison with untreated controls, read-out: mortality

COC(=O)c1ccc(C2=NOC(c3cc(Cl)c(F)c(Cl)c3)(C(F)(F)F)C2)c2c1CCC2 (stereo not shown) [Compound 1-1, Methyl 7-[5-(3,5-dichloro-4-fluoro-phenyl)-5-(trifluoromethyl)-4H-isoxazol-3-yl]indane-4-carboxylate]
≥ 75%: mortality at 2500 ppm [1] | mortality at 300 ppm ([2]; 72 h) | mortality at 2500 ppm [3] | mortality at 2500 ppm [4] | mortality at 2500 ppm [5] | mortality at 300 ppm ([6]; Thrips, 72 h)

O=C(O)c1ccc(C2=NOC(c3cc(Cl)c(F)c(Cl)c3)(C(F)(F)F)C2)c2c1CCC2 (stereo not shown) [Compound 1-2, 7-[5-(3,5-Dichloro-4-fluoro-phenyl)-5-(trifluoromethyl)-4H-isoxazol-3-yl]indane-4-carboxylic acid]
≥ 75%: mortality at 300 ppm ([2]; 72 h) | mortality at 2500 ppm [3] | mortality at 2500 ppm [5]

O=C(NCC1CC1)c1ccc(C2=NOC(c3cc(Cl)c(F)c(Cl)c3)(C(F)(F)F)C2)c2c1CCC2 (stereo not shown) [Compound 1-3, N-(Cyclopropylmethyl)-7-[5-(3,5-dichloro-4-fluoro-phenyl)-5-(trifluoromethyl)-4H-isoxazol-3-yl]indane-4-carboxamide]
≥ 75%: mortality at 100 ppm [7] | mortality at 300 ppm [8] | mortality at 2500 ppm [1] | mortality at 300 ppm ([2]; 72 h) | mortality at 300 ppm [9] | mortality at 300 ppm [10] | mortality at 100 ppm [11] | mortality at 2500 ppm [3] | mortality at 2500 ppm [12] | mortality at 2500 ppm [4] | mortality at 2500 ppm [5] | mortality at 300 ppm ([6]; Thrips, 72 h)

O=C(O)c1ccc(C2=NCC(c3cc(Cl)c(F)c(Cl)c3)(C(F)(F)F)C2)c2c1CCC2 (stereo not shown) [Compound 2-1, 7-[3-(3,5-Dichloro-4-fluoro-phenyl)-3-(trifluoromethyl)-2,4-dihydropyrrol-5-yl]indane-4-carboxylic acid]
≥ 75%: mortality at 300 ppm ([2]; 300 ppm, 3rd instar larvae on dipped cabbage leaves, 72 hours after treatment, in comparison with untreated controls, read-out: mortality) | mortality at 2500 ppm [3, 13] | mortality at 2500 ppm [12, 14] | mortality at 2500 ppm [5, 13]

COC(=O)c1ccc(C2=NCC(c3cc(Cl)c(F)c(Cl)c3)(C(F)(F)F)C2)c2c1CCC2 (stereo not shown) [Compound 2-2, Methyl 7-[3-(3,5-dichloro-4-fluoro-phenyl)-3-(trifluoromethyl)-2,4-dihydropyrrol-5-yl]indane-4-carboxylate]
≥ 75%: mortality at 2500 ppm ([1]; 2500 ppm, adult aphids on sprayed broad bean leaf disks, 5 days, in comparison with untreated controls, read-out: mortality) | mortality at 2500 ppm [3, 13] | mortality at 2500 ppm [12, 14] | mortality at 2500 ppm [5, 13] | mortality at 300 ppm ([6]; 300 ppm, adult thrips on dipped orchid petals, 72 hours after treatment, in comparison with untreated controls, read-out: mortality)

O=C(O)c1ccc(C2=NOC(c3cc(Cl)cc(Cl)c3)(C(F)(F)F)C2)c2c1CCCC2 (stereo not shown) [Compound 3-2, 8-[5-(3,5-dichlorophenyl)-5-(trifluoromethyl)-4H-isoxazol-3-yl]tetralin-5-carboxylic acid]
≥ 75%: mortality at 2500 ppm [5]

O=C(NCC(F)(F)F)c1ccc(C2=NOC(c3cc(Cl)cc(Cl)c3)(C(F)(F)F)C2)c2c1CCCC2 (stereo not shown) [Compound 3-5, 8-[5-(3,5-dichlorophenyl)-5-(trifluoromethyl)-4H-isoxazol-3-yl]-N-(2,2,2-trifluoroethyl)tetralin-5-carboxamide]
≥ 75%: mortality at 300 ppm [8] | mortality at 2500 ppm [1] | mortality at 300 ppm ([2]; 72 h) | mortality at 300 ppm [9] | mortality at 2500 ppm [3] | mortality at 2500 ppm [12] | mortality at 2500 ppm [4] | mortality at 2500 ppm [5] | mortality at 300 ppm ([6]; Thrips, 72 h)
